Measured values: US8946439B2, “Amide compounds, compositions and uses thereof” (Evotec AG, priority 2008, dated 2015)

Tests used:
hP2X2/3H = target: T1, hP2X2/3H (Homo sapiens, UniProt P56373+Q9UBL9); assay: Calcium uptake assay (P2X antagonist assay), P2X2/3 heteromer; type: cell-based; conditions: calcium uptake assay, hP2X2/3H; read-out: IC50 hP2X2/3H (nM), Ca Influx
T1 construct: expressed in transfected cells; host or cells: e.g. HEK293 or 1321N1
T1 sequence (Q9UBL9 1-471): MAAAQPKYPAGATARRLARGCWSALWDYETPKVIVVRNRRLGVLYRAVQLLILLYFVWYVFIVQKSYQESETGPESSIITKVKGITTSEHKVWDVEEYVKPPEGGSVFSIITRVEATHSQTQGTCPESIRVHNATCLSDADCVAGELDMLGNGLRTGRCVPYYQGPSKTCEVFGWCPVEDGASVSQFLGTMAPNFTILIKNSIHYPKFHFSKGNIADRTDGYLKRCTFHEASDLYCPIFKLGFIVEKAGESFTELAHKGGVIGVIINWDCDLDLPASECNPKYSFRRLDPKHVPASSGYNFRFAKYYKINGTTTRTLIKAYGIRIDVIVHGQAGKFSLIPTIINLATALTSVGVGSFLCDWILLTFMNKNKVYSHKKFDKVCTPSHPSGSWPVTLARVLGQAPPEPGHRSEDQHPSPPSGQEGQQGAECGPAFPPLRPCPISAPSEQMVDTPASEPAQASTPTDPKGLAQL
T1 sequence (P56373 1-397): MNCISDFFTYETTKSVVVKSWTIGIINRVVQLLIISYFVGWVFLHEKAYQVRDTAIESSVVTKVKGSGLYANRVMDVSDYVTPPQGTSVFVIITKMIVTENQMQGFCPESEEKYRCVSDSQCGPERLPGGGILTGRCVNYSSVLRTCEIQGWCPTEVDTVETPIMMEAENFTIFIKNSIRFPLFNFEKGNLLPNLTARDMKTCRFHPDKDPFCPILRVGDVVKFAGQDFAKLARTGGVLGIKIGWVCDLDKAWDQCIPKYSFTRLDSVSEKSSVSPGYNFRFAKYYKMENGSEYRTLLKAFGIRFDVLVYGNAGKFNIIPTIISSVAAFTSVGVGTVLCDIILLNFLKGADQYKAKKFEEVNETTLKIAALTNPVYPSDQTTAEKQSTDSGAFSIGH
Source text: (§1) The human P2X2/3 chimera clone is created as described by Neelands et al, and then cloned into an expression vector as above. Receptors are expressed in cells (e.g., HEK293 or 1321N1 (obtained from the ECACC)) via transient transfection using standard lipid mediated transfection, or by creation of stable transfectants for each receptor. For expression of the P2X2/3 heteromeric receptor, the P2X3 expression vector is stably transfected into a cell line already stably expressing P2X2. P2X2/3 heteromer function is isolated using pharmacological methods. Cell lines are maintained in DMEM+5% Glutamax, the appropriate level of selective antibiotic, and 10% heat inactivated FBS.
(§2) Functional activity of compounds at the P2X receptor is determined by measuring their ability to inhibit agonist-induced calcium influx. Compounds are tested for antagonist activity against the P2X2/3 chimera, the P2X3 homomer, or the P2X2/3 heteromer. At the start of each screening day, the agonist EC50 is determined. Compound % inhibition or IC50s are subsequently determined using a predetermined agonist concentration (EC50-90 depending on cell line) as a stimulus. The agonists used are αβMeATP, ATP, or other ATP analogs. Compounds may be tested at concentrations ranging from 1 pM to 10 μM.
(§3) To test for antagonist activity, cells expressing the appropriate receptor are seeded onto 96 or 384 well plates 18-24 hours prior to assay. […] Plates are incubated at 37° C. and then equilibrated at room temperature. Antagonism of agonist-induced calcium influx is measured using a fluorescent imaging plate reader (e.g. FLIPR^TETRA, Molecular Devices, Sunnyvale, Calif.). The assay comprises two stages: a pre-treatment phase followed by a treatment phase. Compounds may be tested as follows: For the pre-treatment phase, 50 μL of 3× concentration of test compound in HBSS is added to cells containing […], of dye loading media to achieve a final concentration of 1× test compound. For the treatment phase, at a set interval after pre-treatment (1-30 minutes), 50 μL of 1× test compound plus 4× agonist solution is added, resulting in a final concentration of 1× compound and 1× agonist. […] Responses are measured as (peak fluorescence after agonist addition) minus (baseline fluorescence prior to treatment). Percent inhibition is calculated as follows:
(§4) [formula] IC50 values are determined by analyzing dose response data in a 4 parameter logistic fit using GraphPad Prizm.

hP2X3 = target: T2, hP2X3 (Homo sapiens, UniProt P56373); assay: Calcium uptake assay (P2X antagonist assay), P2X3 homomer; type: cell-based; conditions: calcium uptake assay, hP2X3; read-out: IC50 hP2X3 (nM), Ca Influx
T2 construct: expressed in transfected cells; host or cells: e.g. HEK293 or 1321N1
T2 sequence (P56373 1-397): T1 sequence (P56373 1-397)
Source text: as §1, §2, §3, §4

SMILES	IC50 (hP2X2/3H) [nM]	IC50 (hP2X3) [nM]
Cc1ccc(-c2cc(C(=O)NCc3ccc(C)nc3)cc(C(=O)N3CC(O)C3)c2)c(C#N)c1 [Compound 63, 2′-Cyano-5-(3-hydroxyazetidine-1-carbonyl)-4′-methyl-N-((6-methylpyridin-3-yl)methyl)biphenyl-3-carboxamide]	< 100	< 100
Cc1ccc(-c2cc(C(=O)NCc3ccc(C(F)(F)F)nc3)cc(C(=O)N3CC(O)C3)c2)c(C#N)c1 [Compound 64]	< 100	< 100
Cc1ccc(-c2cc(S(=O)(=O)N3CCCC3)cc(C(=O)N[C@H](C)c3cnc(C)nc3)c2C)cc1 [Compound 65, (R)-2,4′-Dimethyl-N-(1-(2-methylpyrimidin-5-yl)ethyl)-5-(pyrrolidin-1-ylsulfonyl)biphenyl-3-carboxamide]	> 1000	100 to 500
Cc1ccc(-c2cc(S(=O)(=O)N3CCCC3)cc(C(=O)NCc3ccc(Cl)c(S(C)(=O)=O)c3)c2C)cc1 [Compound 66]	> 1000	100 to 500
Cc1ccc(-c2cc(S(=O)(=O)N3CCCC3)cc(C(=O)NCc3cnc(C)nc3)c2C)cc1 [Compound 67, 2,4′-Dimethyl-N-((2-methylpyrimidin-5-yl)methyl)-5-(pyrrolidin-1-ylsulfonyl)biphenyl-3-carboxamide]	> 1000	< 100
Cc1ccc(-c2cc(S(=O)(=O)N3CCCC3)cc(C(=O)NCc3ccc(C)nc3)c2C)cc1 [Compound 68]	> 1000	100 to 500
Cc1ccc(-c2cc(C(=O)NCc3ccc(Cl)nc3)cc(C(=O)N3CCCC3)c2)c(C#N)c1 [Compound 69]	< 100	< 100
CCCS(=O)(=O)c1cc(C(=O)N[C@@H](C)CN2CCOCC2)cc(-c2ccc(C)cc2)c1 [Compound 70]	100 to 500	< 100
Cc1ccc(-c2cc(C(=O)NCc3ccc(C)c(S(C)(=O)=O)c3)cc(C(=O)N3CCCC3)c2)cc1 [Compound 71]	< 100	< 100
Cc1ccc(-c2cc(C(=O)NCc3ccc4c(c3)S(=O)(=O)CC4)cc(C(=O)N3CCCC3)c2)cc1 [Compound 72]	< 100	< 100
Cc1ccc(-c2cc(C(=O)NCc3ccc(Cl)c(S(=O)(=O)NC4CC4)c3)cc(C(=O)N3CCCC3)c2)cc1 [Compound 73, N-(4-Chloro-3-(N-cyclopropylsulfamoyl)benzyl)-4′-methyl-5-(pyrrolidine-1-carbonyl)biphenyl-3-carboxamide]	501 to 1000	100 to 500
Cc1ccc(-c2cc(C(=O)NCc3ncc(C(F)(F)F)cc3Cl)cc(C(=O)N3CCCC3)c2)cc1 [Compound 74]	< 100	< 100
Cc1ccc(-c2cc(C(=O)N[C@H](C)c3ccc(C(F)(F)F)nc3)cc(C(=O)N3CCC3)c2)cc1 [Compound 75]	< 100	< 100
Cc1ccc(-c2cc(C(=O)N[C@H](C)c3cnc(C)nc3)cc(C(=O)N3CC(O)C3)c2)cc1 [Compound 76]	< 100	< 100
COc1ncc([C@@H](C)NC(=O)c2cc(C(=O)N3CCC3)cc(-c3ccc(C)cc3)c2)cn1 [Compound 77]	< 100	< 100
Cc1ccc(-c2cc(C(=O)N[C@H](C)c3cnc(C)nc3)cc(C(=O)N3CCC3)c2)cc1 [Compound 78]	< 100	< 100
COc1ncc(CNC(=O)c2cc(C(=O)N3CCCC3)cc(-c3ccc(C)cc3)c2)c(N)n1 [Compound 79]	501 to 1000	100 to 500
Cc1ccc(-c2cc(C(=O)NCc3cnc(C(C)C)nc3)cc(C(=O)N3CCCC3)c2)cc1 [Compound 80]	> 1000	501 to 1000

SMILES	IC50 (hP2X2/3H) [nM]	IC50 (hP2X3) [nM]
Cc1ccc(-c2cc(C(=O)NCc3ncc(Cl)cc3Cl)cc(C(=O)N3CCCC3)c2)cc1 [Compound 81]	< 100	< 100
Cc1ccc(-c2cc(C(=O)N[C@@H](C)CN3CCOCC3)cc(C(=O)N3CCCC3)c2)cc1 [Compound 82]	501 to 1000	< 100
Cc1ccc(-c2cc(C(=O)NC(CCO)c3ccc(C(F)(F)F)nc3)cc(C(=O)N3CCCC3)c2)cc1 (stereo not shown) [Compound 83, N-(3-Hydroxy-1-(6-(trifluoromethyl)pyridin-3-yl)propyl)-4′-methyl-5-(pyrrolidine-1-carbonyl)biphenyl-3-carboxamide]	100 to 500	100 to 500
COc1ncc([C@@H](C)NC(=O)c2cc(C(=O)N3CC(O)C3)cc(-c3ccc(C)cc3)c2)cn1 [Compound 84]	100 to 500	< 100
Cc1ccc(-c2cc(C(=O)N[C@H](C)c3ccc(C(F)(F)F)nc3)cc(C(=O)N3CC(O)C3)c2)cc1 [Compound 85]	< 100	< 100
Cc1ccc(-c2cc(C(=O)NCc3ccc(C)nc3)cc(C(=O)N3CCC(N4CCOCC4)C3)c2)cc1 (stereo not shown) [Compound 86, 4′-Methyl-N-((6-methylpyridin-3-yl)methyl)-5-(3-morpholinopyrrolidine-1-carbonyl)biphenyl-3-carboxamide]	100 to 500	100 to 500
Cc1ccc(-c2cc(C(=O)O)cc(C(=O)NCc3ccc(C)nc3)c2)cc1 [Compound 87, 4′-Methyl-5-((6-methylpyridin-3-yl)methylcarbamoyl)biphenyl-3-carboxylic acid]	100 to 500	100 to 500
CCOC(=O)c1cc(C(=O)NCc2ccc(C)nc2)cc(-c2ccc(C)cc2)c1 [Compound 88]	< 100	100 to 500
Cc1ccc(-c2cc(C(=O)N[C@H](CO)c3ccc(C(F)F)nc3)cc(C(=O)N3CCCC3)c2)cc1 [Compound 89]	< 100	< 100
Cc1ccc(-c2cc(C(=O)NCc3ccc4ocnc4c3)cc(C(=O)N3CCCC3)c2)cc1 [Compound 90]	< 100	< 100
Cc1ccc(-c2cc(C(=O)NCc3ccc(Cl)nc3)cc(C(=O)N3CCCC3)c2)cc1 [Compound 91]	< 100	< 100
Cc1ccc(-c2cc(C(=O)N[C@H](CO)c3ccc(C(F)(F)F)nc3)cc(C(=O)N3CCCC3)c2)cc1 [Compound 92]	< 100	< 100
Cc1ccc(-c2cc(C(=O)N[C@@H](C)c3cnc(C)nc3)cc(C(=O)N3CCCC3)c2)cc1 [Compound 93]	501 to 1000	100 to 500
Cc1ccc(-c2cc(C(=O)NCc3ccc(C)nc3)cc(C(=O)N3CC[C@@H](O)C3)c2)cc1 [Compound 94, (R)-5-(3-Hydroxypyrrolidine-1-carbonyl)-4′-methyl-N-((6-methylpyridin-3-yl)methyl)biphenyl-3-carboxamide]	< 100	< 100
Cc1ccc(-c2cc(C(=O)NCc3ccc(C)nc3)cc(C(=O)N3CC[C@H](O)C3)c2)cc1 [Compound 95, (S)-5-(3-Hydroxypyrrolidine-1-carbonyl)-4′-methyl-N-((6-methylpyridin-3-yl)methyl)biphenyl-3-carboxamide]	100 to 500	< 100
Cc1ccc(-c2cc(C(=O)N[C@H](CO)c3cnc(C)nc3)cc(C(=O)N3CCCC3)c2)cc1 [Compound 96]	< 100	< 100
Cc1ccc(-c2cc(C(=O)NC(C)c3ccc4c(c3)OCO4)cc(C(=O)N3CCCC3)c2)cc1 (stereo not shown) [Compound 97]	100 to 500	100 to 500
